Experimental data: patent publication US10538555B2, “Macrocyclic inhibitors of the PD-1/PD-L1 and CD80(B7-1)/PD-L1 protein/protein interactions” (BRISTOL-MYERS SQUIBB COMPANY, priority 2014, dated 2020)
*1 amine or outer side, *2 acyl side, *3 side chain or, on linkers, in order; H or OH if unused. Where a SMILES comes first, the peptide text is derived from it. Bridges are numbered along the chain shown (N, C = ends). [ ]: non-standard residue; d: D form. ξ: configuration not given here. X7 = CCCC[C@@H](C(=O)C[C@@H](CO)C(=O)[*:2])N(C)[*:1]; Phe(3,4,5-F3) = N[C@@H](Cc1cc(F)c(F)c(F)c1)C(=O)O; NMePhe(4-F) = CN[C@@H](Cc1ccc(F)cc1)C(=O)O; Phe(4-F) = N[C@@H](Cc1ccc(F)cc1)C(=O)O; d(cisHyp) = O=C(O)[C@H]1C[C@@H](O)CN1; Bta = N[C@@H](Cc1csc2ccccc12)C(=O)O; NMeY = CN[C@@H](Cc1ccc(O)cc1)C(=O)O; Hyp = O=C(O)[C@@H]1C[C@@H](O)CN1; NMeF = CN[C@@H](Cc1ccccc1)C(=O)O; X1 = O=C([C@H]1COCCN1[*:1])[*:2]; dHyp = O=C(O)[C@H]1C[C@H](O)CN1; NMeNle = CCCC[C@H](NC)C(=O)O; NMeV = CN[C@H](C(=O)O)C(C)C; dPip = O=C(O)[C@H]1CCCCN1; hSer = N[C@@H](CCO)C(=O)O; NMeA = CN[C@@H](C)C(=O)O; Orn = NCCC[C@H](N)C(=O)O; Abu = CC[C@H](N)C(=O)O; Dap = NC[C@H](N)C(=O)O; ξC = NC(CS)C(=O)O; Sar = CNCC(=O)O

What follows are molecules tested against T1, Human PD-L1/PD-1 (Homo sapiens, UniProt Q9NZQ7) (assay: HTRF Human PD-L1/PD-1 binding assay (PD-1-Ig/PD-L1-His)). Details: PD-L1-His 10 nM, PD-1-Ig 20 nM; class symbol; read-out: HTRF Human PD-L1/PD-1 Binding Assay IC50 Range.
T1 construct: TVMV protease cleavage site (C); made in house; host or cells: HEK293T cells
T1 sequence (Q9NZQ7 with tags, fused parts or gaps): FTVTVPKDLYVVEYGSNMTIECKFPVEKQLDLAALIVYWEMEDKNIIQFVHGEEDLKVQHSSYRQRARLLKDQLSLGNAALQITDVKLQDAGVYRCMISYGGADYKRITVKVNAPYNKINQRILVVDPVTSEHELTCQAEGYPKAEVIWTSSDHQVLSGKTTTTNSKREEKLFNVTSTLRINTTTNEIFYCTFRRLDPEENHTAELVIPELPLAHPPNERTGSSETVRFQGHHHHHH
Outline: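 Soluble HEK293T-expressed proteins: hPD-L1-His 10 nM, hPD-1-Ig 20 nM final. Cpd + PD-L1 15 min, + PD-1 15 min, + Eu anti-Ig 1 nM/APC anti-His 20 nM 30 min. Buffer dPBS, 0.1% BSA, 0.05% Tween-20. TR-FRET 665/620.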

IC50 [nM]	Structure (SMILES)
1000 to 10000	CCCC[C@H]1C(=O)N[C@@H](CC(N)=O)C(=O)N2CCC[C@H]2C(=O)N[C@@H](CO)C(=O)N[C@@H](CCO)C(=O)N2C[C@H](O)C[C@H]2C(=O)N[C@@H](Cc2c[nH]c3ccccc23)C(=O)N[C@@H](CN)C(=O)N[C@@H](Cc2c[nH]c3ccccc23)C(=O)N(C)[C@@H](C)C(=O)N(C)CC(=O)N[C@@H](CCCNC(=N)N)C(=O)NC(C(=O)NCC(N)=O)CSCC(=O)N[C@@H](Cc2ccc(O)cc2)C(=O)N1C (some centres unmarked) [Example 10205] ({CH2CO}-Y[NMeNle]NPS[hSer][Hyp]W[Dap]W[NMeA][Sar]R[ξC]G-NH2; thioether N-14)
10 to 99.9	CCCC[C@H]1C(=O)N(C)[C@@H](CCCC)C(=O)C[C@@H](CO)C(=O)NC(C(=O)NCC(N)=O)CSCC(=O)N[C@@H](Cc2ccc(O)cc2)C(=O)N(C)[C@@H](C)C(=O)N[C@@H](CC(N)=O)C(=O)N2CCC[C@H]2C(=O)N[C@@H](CC(N)=O)C(=O)N[C@@H](CC(C)C)C(=O)N2CCC[C@H]2C(=O)N[C@@H](Cc2c[nH]c3ccccc23)C(=O)N[C@@H](CO)C(=O)N[C@@H](Cc2csc3ccccc23)C(=O)N1C (some centres unmarked) [Example 9141] ({CH2CO}-Y[NMeA]NPNLPWS[Bta][NMeNle][X7][ξC]G-NH2; thioether N-13)
10 to 99.9	CCCC[C@H]1C(=O)N2CCC[C@@H]2C(=O)N[C@@H](CC(=O)O)C(=O)N[C@@H](C(C)C)C(=O)N(C)[C@@H](Cc2ccccc2)C(=O)N[C@@H](CCC(=O)O)C(=O)N2CCOC[C@@H]2C(=O)N[C@@H](Cc2c[nH]c3ccccc23)C(=O)N[C@@H](Cc2ccc(O)cc2)C(=O)N[C@@H](CN)C(=O)N[C@H](C(=O)NCC(N)=O)CSCC(=O)N[C@@H](Cc2cc(F)c(F)c(F)c2)C(=O)N(C)[C@@H](Cc2ccc(O)cc2)C(=O)N1C [Example 10617] ({CH2CO}-[Phe(3,4,5-F3)][NMeY][NMeNle][dP]DV[NMeF]E[X1]WY[Dap]CG-NH2; thioether N-13)
1 to 9.9	CCCC[C@H]1C(=O)N2C[C@H](O)C[C@@H]2C(=O)N[C@@H](CC(=O)O)C(=O)N[C@@H](C(C)C)C(=O)N(C)[C@@H](Cc2ccccc2)C(=O)N[C@@H](CCC(N)=O)C(=O)N2C[C@H](O)C[C@@H]2C(=O)N[C@@H](Cc2c[nH]c3ccccc23)C(=O)N[C@@H](Cc2ccc(O)cc2)C(=O)N[C@@H](CCCCN)C(=O)N[C@H](C(=O)NCC(N)=O)CSCC(=O)N[C@@H](Cc2cc(F)c(F)c(F)c2)C(=O)N(C)[C@@H](Cc2ccccc2)C(=O)N1C [Example 9353] ({CH2CO}-[Phe(3,4,5-F3)][NMeF][NMeNle][d(cisHyp)]DV[NMeF]Q[d(cisHyp)]WYKCG-NH2; thioether N-13)
1000 to 10000	CCCC[C@H]1C(=O)N2CCC[C@@H]2C(=O)N[C@@H](CC(=O)O)C(=O)N[C@@H](C(C)C)C(=O)N(C)[C@@H](C(C)C)C(=O)N[C@@H](Cc2ccc(O)cc2)C(=O)N2CCC[C@@H]2C(=O)N[C@@H](Cc2c[nH]c3ccccc23)C(=O)N[C@@H](Cc2ccc(O)cc2)C(=O)N[C@@H](CC(C)C)C(=O)N[C@H](C(=O)NCC(N)=O)CSCC(=O)N[C@@H](Cc2ccc(F)cc2)C(=O)N(C)[C@@H](Cc2ccccc2)C(=O)N1C [Example 9241] ({CH2CO}-[Phe(4-F)][NMeF][NMeNle][dP]DV[NMeV]Y[dP]WYLCG-NH2; thioether N-13)
1 to 9.9	CCCC[C@H]1C(=O)N2C[C@H](O)C[C@@H]2C(=O)N[C@@H](CC(=O)O)C(=O)N[C@@H](C(C)C)C(=O)N(C)[C@@H](Cc2ccccc2)C(=O)N[C@@H](Cc2ccc(O)cc2)C(=O)N2C[C@H](O)C[C@@H]2C(=O)N[C@@H](Cc2c[nH]c3ccccc23)C(=O)N[C@@H](Cc2ccc(O)cc2)C(=O)N[C@@H](CCCCN)C(=O)N[C@H](C(=O)NCC(N)=O)CSCC(=O)N[C@@H](Cc2cc(F)c(F)c(F)c2)C(=O)N(C)[C@@H](Cc2ccccc2)C(=O)N1C [Example 9322] ({CH2CO}-[Phe(3,4,5-F3)][NMeF][NMeNle][d(cisHyp)]DV[NMeF]Y[d(cisHyp)]WYKCG-NH2; thioether N-13)
10 to 99.9	CCCC[C@H]1C(=O)N2CCC[C@@H]2C(=O)N[C@@H](CO)C(=O)N[C@@H](CC)C(=O)N(C)[C@@H](Cc2ccccc2)C(=O)N[C@@H](Cc2ccc(O)cc2)C(=O)N2CCCC[C@@H]2C(=O)N[C@@H](Cc2c[nH]c3ccccc23)C(=O)N[C@@H](Cc2ccc(O)cc2)C(=O)N[C@@H](CC(C)C)C(=O)N[C@H](C(=O)NCC(N)=O)CSCC(=O)N[C@@H](Cc2ccccc2)C(=O)N(C)[C@@H](Cc2ccccc2)C(=O)N1C [Example 10060] ({CH2CO}-F[NMeF][NMeNle][dP]S[Abu][NMeF]Y[dPip]WYLCG-NH2; thioether N-13)
1 to 9.9	CCCC[C@H]1C(=O)N2CCC[C@@H]2C(=O)N[C@@H](CC(=O)O)C(=O)N[C@@H](C(C)C)C(=O)N(C)[C@@H](Cc2ccccc2)C(=O)N[C@@H](CCC(=O)O)C(=O)N2CCOC[C@@H]2C(=O)N[C@@H](Cc2c[nH]c3ccccc23)C(=O)N[C@@H](Cc2ccc(O)cc2)C(=O)N[C@@H](CCCCN)C(=O)N[C@H](C(=O)NCC(N)=O)CSCC(=O)N[C@@H](Cc2cc(F)c(F)c(F)c2)C(=O)N(C)[C@@H](Cc2ccc(F)cc2)C(=O)N1C [Example 10598] ({CH2CO}-[Phe(3,4,5-F3)][NMePhe(4-F)][NMeNle][dP]DV[NMeF]E[X1]WYKCG-NH2; thioether N-13)
1 to 9.9	CCCC[C@H]1C(=O)N2CCC[C@@H]2C(=O)N[C@@H](CC(=O)O)C(=O)N[C@@H](C(C)C)C(=O)N(C)[C@@H](Cc2ccccc2)C(=O)N[C@@H](CCC(=O)O)C(=O)N2C[C@@H](O)C[C@@H]2C(=O)N[C@@H](Cc2c[nH]c3ccccc23)C(=O)N[C@@H](Cc2ccc(O)cc2)C(=O)N[C@@H](CCCN)C(=O)N[C@H](C(=O)NCC(N)=O)CSCC(=O)N[C@@H](Cc2cc(F)c(F)c(F)c2)C(=O)N(C)[C@@H](Cc2ccccc2)C(=O)N1C [Example 9286] ({CH2CO}-[Phe(3,4,5-F3)][NMeF][NMeNle][dP]DV[NMeF]E[dHyp]WY[Orn]CG-NH2; thioether N-13)

Same assay, conditions: PD-L1-His 10 nM, PD-1-Ig 20 nM; read-out: HTRF Human PD-L1/PD-1 Binding Assay IC50

IC50 [nM]	Structure (SMILES)
364	CCCC[C@H]1C(=O)N(C)[C@@H](CCCC)C(=O)N[C@@H](CCC(=O)O)C(=O)NC(C(=O)NCC(N)=O)CSCC(=O)N[C@@H](Cc2ccc(O)cc2)C(=O)N(C)[C@@H](C)C(=O)N[C@@H](CC(N)=O)C(=O)N2CCC[C@H]2C(=O)N[C@@H](Cc2c[nH]cn2)C(=O)N[C@@H](CC(N)=O)C(=O)N2C[C@H](O)C[C@H]2C(=O)N[C@@H](Cc2c[nH]c3ccccc23)C(=O)N[C@@H](CC(=O)O)C(=O)N[C@@H](Cc2c[nH]c3ccccc23)C(=O)N1C (some centres unmarked) [Example 9175] ({CH2CO}-Y[NMeA]NPHN[Hyp]WDW[NMeNle][NMeNle]E[ξC]G-NH2; thioether N-14)
468	CCCC[C@H]1C(=O)N(C)[C@@H](CCCC)C(=O)N[C@@H](C)C(=O)N[C@H](C(=O)NCC(N)=O)CSCC(=O)N[C@@H](Cc2ccc(O)cc2)C(=O)N2CCCC[C@H]2C(=O)N[C@@H](CC(N)=O)C(=O)N2CCC[C@H]2C(=O)N[C@@H](Cc2cnc[nH]2)C(=O)N[C@@H](CCC(N)=O)C(=O)N2CCNC[C@H]2C(=O)N[C@@H](Cc2c[nH]c3ccccc23)C(=O)N[C@@H](CO)C(=O)N[C@@H](Cc2c[nH]c3ccccc23)C(=O)N1C [Example 1276]
